Experimental data: US5723501A, “Pharmaceutical compositions containing 3-IODO-1,2-propanediol having mucolytic activity” (Carter-Wallace, Inc., priority 1996, dated 1998)
Several values for one entry are separate records, joined by “and”; a condition that tells them apart may be missing. Equal values may be shown once. Entries after “also recorded” stand apart in the source; their conditions may differ.

Assays:
[1] = tested on: tracheal secretion of phenol red in mice; assay: Tracheal secretion of phenol red in male mice (Engler and Szelenyi method); type: in vivo; settings: for ED50: Mus musculus, po, 0.5 h, read-out: ED50 (dose stimulating tracheal secretion of phenol red by 50% over the control); for ED50 / effect on tracheal secretion of phenol red, dose dependence / ED50 (dose stimulating tracheal secretion of phenol red by 50% over the control): 30 minutes; for ED50 / ED50 (dose stimulating tracheal secretion of phenol red by 50% over the control): male mice; for Phenol Red Secretion, Treated: 30 min before phenol red i.p., * P<0.05 vs control; for Phenol Red Secretion, Treated / % Change in phenol red secretion: mean ± SFM; for % Change in phenol red secretion: vs control
Source text: Adult male mice weighing 14-40 g were used in this investigation. Animals were acclimatized to the laboratory environment for a minimum of five days prior to use in the experimental procedures. Housing was provided in environmentally controlled quarters in which temperature, humidity and ventilation were regulated based on the needs of the species. Husbandry practices and veterinary care were in accordance with the Guide for Care and Use of Laboratory Animals (NIH Publication No. 85-23). Tracheal secretion in mice, expressed by the amount of phenol red dye secreted into the lumen of the trachea was measured according to the method of Engler and Szelenyi. Male mice were randomly placed into appropriate treatment groups. On each experiment day, one to four mice in a group received orally either vehicle (distilled water or 1% acacia, 0.1 mL/10 g body weight) or a drug. Each drug was tested at a minimum of three different dose levels. Each drug dosage was tested in at least six animals. Drugs were administered orally (0.1 mL/10 g body weight) 30 minutes prior to intraperitoneal injection of phenol red (500 mg/kg: 5% solution in physiological saline, 0.1 mL/10 g body weight). Thirty minutes after phenol red injection the animals were sacrificed by exposure to CO2. The whole trachea was carefully excised and washed in 1.0 mL physiological saline for a period of 30 minutes. Subsequently, 0.1 mL of 1 M NaOH was added to the tracheal washings to stabilize the pH of the lavage fluid. The amount of phenol red was measured photometrically at […] in a Beckman Model 25 spectrophotometer. The amount of phenol red secreted in the tracheal lumen, expressed in μg/10 g body weight/hr, was determined by the formula of Graziani and Cazzulani: [formula] where: S=phenol red secreted per 10 g of body weight per hour (μg/10 g/hr). s=intensity of emission of the phenol red contained in 1.0 mL of tracheal lavage as determined from the standard curve of phenol red (0.5, 1, 5, and 10 μg/mL). V=volume of the tracheal lavage (1.0 mL). W=body weight of the mice expressed in grams. The results were expressed as mean ±S.F.M. Statistical significance was evaluated using the t-test for independent means, where P<0.05 is considered to be significant as compared to the appropriate control. The % increase in tracheal secretion of phenol red by each dose of a drug was determined by using the following formula: [formula] T=tracheal secretion of phenol red (μg/10 g/hr) in treated mice each day. C=tracheal secretion of phenol red (μg/10 g/hr) in untreated mice each day. The line of best fit was calculated from the dose response curve of each drug and the ED50 (mg/kg), i.e. the dose stimulating tracheal secretion of phenol red by 50% over the control level, was determined and 95% confidence limits were also calculated.

[2] = tested on: mechanical or electrical stimulation in the cat; settings: cited from earlier work
[3] = tested on: citric acid (aerosol)-induced coughing responses in guinea pigs; settings: cited from earlier work
[4] = tested on: tracheal secretion in mice; settings: cited from earlier work

Compound | ED50 ([1]; p.o.) | Phenol Red Secretion, Treated ([1]; oral dose 0.3 mg/kg) | % Change in phenol red secretion ([1]; oral dose 0.3 mg/kg) | Phenol Red Secretion, Treated ([1]; oral dose 1.0 mg/kg) | % Change in phenol red secretion ([1]; oral dose 1.0 mg/kg) | Phenol Red Secretion, Treated ([1]; oral dose 10.0 mg/kg) | % Change in phenol red secretion ([1]; oral dose 10.0 mg/kg) | Phenol Red Secretion, Treated ([1]; oral dose 30.0 mg/kg) | % Change in phenol red secretion ([1]; oral dose 30.0 mg/kg) | stimulation of tracheal secretion of phenol red ([1]; oral, mice) | effect on tracheal secretion of phenol red, dose dependence ([1]; p.o., mice) | oral ED50 reported earlier by others [4] | Phenol Red Secretion, Treated ([1]; oral dose 100.0 mg/kg) | % Change in phenol red secretion ([1]; oral dose 100.0 mg/kg) | Phenol Red Secretion, Treated ([1]; oral dose 50.0 mg/kg) | % Change in phenol red secretion ([1]; oral dose 50.0 mg/kg) | Phenol Red Secretion, Treated ([1]; oral dose 200.0 mg/kg) | % Change in phenol red secretion ([1]; oral dose 200.0 mg/kg) | other results
OCC(O)CI (stereo not drawn) [3-iodo-1,2-propanediol] | 0.75 mg/kg | 1.02 ± 0.06 μg/10 g/hr | 37.5 ± 8.01% | 1.16 ± 0.13 μg/10 g/hr | 56.55 ± 17.83% | 1.32 ± 0.16 μg/10 g/hr | 77.36 ± 21.67% | 1.56 ± 0.23 μg/10 g/hr | 110.45 ± 31.5% | stimulates tracheal secretion of phenol red; also recorded: effective in stimulating tracheal secretion of phenol red | dose-dependent increase; also recorded: dose-dependent stimulation | – | – | – | – | – | – | – | effectiveness relative to iodinated glycerol in stimulating tracheal secretion of phenol red ([1]; oral, mice, times as effective as iodinated glycerol): about 90 times; antitussive effect [2]: antitussive effect; antitussive effect [3]: antitussive effect
CC(C)(C)NCC(O)c1ccc(O)c(CO)c1 (stereo not drawn) [Albuterol] | 0.18 mg/kg | 1.30 ± 0.16 μg/10 g/hr | 78.4 ± 22.9% | 1.60 ± 0.09 μg/10 g/hr | 118.6 ± 11.6% | – | – | – | – | stimulated tracheal secretion of phenol red | dose-dependent increase | about 4 mg/kg | – | – | – | – | – | – | Phenol Red Secretion, Treated ([1]; oral dose 0.1 mg/kg): 0.85 ± 0.08 μg/10 g/hr; % Change in phenol red secretion ([1]; oral dose 0.1 mg/kg): 20.5 ± 10.6%
CN(Cc1cc(Br)cc(Br)c1N)C1CCCCC1 [Bromhexine] | > 100 mg/kg | – | – | – | – | – | – | 0.67 ± 0.10 μg/10 g/hr | 0 ± 0% | – | weak to moderate nondose-related effect | – | 0.90 ± 0.10 μg/10 g/hr | 40.6 ± 17.0% | – | – | – | – | significant increase in phenol red tracheal secretion ([1]; 3 or 30 mg/kg, p.o.): not at 3 or 30 mg/kg; increase in phenol red tracheal secretion ([1]; only at 100 mg/kg, p.o.): significant increase; Phenol Red Secretion, Treated ([1]; oral dose 3.0 mg/kg): 1.20 ± 0.13 μg/10 g/hr; % Change in phenol red secretion ([1]; oral dose 3.0 mg/kg): 20.9 ± 12.9%; bronchosecretogogue activity reported by others ([4]; 40 mg/kg, p.o., mice): little or no bronchosecretogogue activity
CC(=O)N[C@@H](CS)C(=O)O [N-acetylcysteine] | 61.8 mg/kg | – | – | – | – | 0.66 ± 0.06 μg/10 g/hr | 2.3 ± 13.2% | – | – | – | dose-dependent increase | – | – | – | 1.00 ± 0.08 μg/10 g/hr | 51.6 ± 10.6% | 1.30 ± 0.12 μg/10 g/hr | 75.7 ± 1.5% | –
[I-].[K+] [Potassium Iodide, potassium iodide] | – | – | – | – | – | – | – | – | – | stimulated tracheal secretion of phenol red | dose-dependent increase | ~4000 mg/kg | 1.47 ± 0.15 μg/10 g/hr | 45.8 ± 14.2% | 0.67 ± 0.07 μg/10 g/hr | 5.1 ± 11.2% | 0.96 ± 0.10 μg/10 g/hr | 49.1 ± 12.2% | ED50 (dose stimulating tracheal secretion of phenol red by 50% over the control) ([1]; p.o.): ~ 200 mg/kg; ED50 (dose stimulating tracheal secretion of phenol red by 50% over the control) ([1]; p.o., listed as potassium iodide): ~ 200 mg/kg and 200 mg/kg
